Experimental data as given in the NIST ThermoML archive (doi:10.1016/j.jct.2015.04.030).

Test: excess molar enthalpy (molar enthalpy of mixing); xn = mol fraction of the nth substance listed
Settings: 100 kPa, Liquid, Calvet calorimetry

CN(C)CCN(C)CCN(C)C [N,N,N',N'',N''-pentamethyldiethylenetriamine] + O
excess molar enthalpy [kcal/mol]
Settings	303.15 K	323.15 K
x1 = 0.0486	-0.641	–
x1 = 0.0506	–	-0.561
x1 = 0.099	-0.948	–
x1 = 0.1024	–	-0.825
x1 = 0.15	-1.03	-0.908
x1 = 0.2	–	-0.951
x1 = 0.2072	-1.08	–
x1 = 0.2492	-1.05	–
x1 = 0.25	–	-0.927
x1 = 0.3	-1	–
x1 = 0.3062	–	-0.869
x1 = 0.4001	–	-0.77
x1 = 0.4063	-0.841	–
x1 = 0.4895	-0.727	–
x1 = 0.5005	–	-0.618
x1 = 0.6001	–	-0.478
x1 = 0.6117	-0.538	–

CN(C)CCN(C)CCO [2-{[2-(dimethylamino)ethyl](methyl)amino}ethanol] + O
303.15 K
Settings	excess molar enthalpy [kcal/mol]
x1 = 0.1012	-0.696
x1 = 0.2028	-0.863
x1 = 0.25	-0.894
x1 = 0.3015	-0.862
x1 = 0.4004	-0.836
x1 = 0.4989	-0.716

OCCNCCO [diethanolamine] + O
298.15 K
Settings	excess molar enthalpy [kcal/mol]
x1 = 0.05035	-0.13
x1 = 0.1001	-0.266
x1 = 0.1989	-0.41
x1 = 0.2023	-0.415
x1 = 0.2958	-0.484
x1 = 0.3428	-0.494
x1 = 0.3974	-0.491
x1 = 0.4915	-0.465
x1 = 0.599	-0.38
x1 = 0.7038	-0.304
x1 = 0.795	-0.223
x1 = 0.9029	-0.0989

OCCN(CCO)CCO [triethanolamine] + O
Settings	excess molar enthalpy [kcal/mol]
303.15 K, x1 = 0.0473	-0.128
303.15 K, x1 = 0.1013	-0.222
303.15 K, x1 = 0.2063	-0.308
303.15 K, x1 = 0.3064	-0.334
303.15 K, x1 = 0.3548	-0.335
303.15 K, x1 = 0.4076	-0.327
303.15 K, x1 = 0.4902	-0.292
303.15 K, x1 = 0.5783	-0.267
303.15 K, x1 = 0.71	-0.201
303.15 K, x1 = 0.7943	-0.145
303.15 K, x1 = 0.8959	-0.0758
323.15 K, x1 = 0.0487	-0.119
323.15 K, x1 = 0.1001	-0.207
323.15 K, x1 = 0.2028	-0.288
323.15 K, x1 = 0.3033	-0.317
323.15 K, x1 = 0.3502	-0.322
323.15 K, x1 = 0.4	-0.319
323.15 K, x1 = 0.5021	-0.279
323.15 K, x1 = 0.6021	-0.249
323.15 K, x1 = 0.6989	-0.198
323.15 K, x1 = 0.8006	-0.14
323.15 K, x1 = 0.9009	-0.0679

NCCCNCCCN [bis(3-aminopropyl)amine] + O
excess molar enthalpy [kcal/mol]
Settings	303.15 K	323.15 K
x1 = 0.0507	–	-0.581
x1 = 0.0508	-0.621	–
x1 = 0.1064	–	-1.05
x1 = 0.1065	-1.11	–
x1 = 0.1991	–	-1.43
x1 = 0.1993	-1.52	–
x1 = 0.3005	-1.57	-1.48
x1 = 0.4049	-1.47	–
x1 = 0.4057	–	-1.34
x1 = 0.4998	-1.33	–
x1 = 0.5003	–	-1.21
x1 = 0.602	-1.09	–
x1 = 0.6022	–	-0.916
x1 = 0.6842	-0.83	-0.744
x1 = 0.8014	–	-0.463
x1 = 0.8015	-0.534	–

CCN(CC)CCO [(diethylamino)ethanol] + O
Settings	excess molar enthalpy [kcal/mol]
303.15 K, x1 = 0.0504	-0.253
303.15 K, x1 = 0.1001	-0.377
303.15 K, x1 = 0.2008	-0.522
303.15 K, x1 = 0.301	-0.607
303.15 K, x1 = 0.3688	-0.62
303.15 K, x1 = 0.387	-0.625
303.15 K, x1 = 0.4002	-0.621
303.15 K, x1 = 0.4522	-0.611
303.15 K, x1 = 0.5002	-0.598
303.15 K, x1 = 0.5998	-0.528
303.15 K, x1 = 0.7003	-0.418
303.15 K, x1 = 0.8007	-0.288
303.15 K, x1 = 0.901	-0.144
323.15 K, x1 = 0.0502	-0.192
323.15 K, x1 = 0.1009	-0.296
323.15 K, x1 = 0.1951	-0.407
323.15 K, x1 = 0.3002	-0.482
323.15 K, x1 = 0.369	-0.499
323.15 K, x1 = 0.4006	-0.502
323.15 K, x1 = 0.5005	-0.477
323.15 K, x1 = 0.6	-0.422
323.15 K, x1 = 0.6191	-0.386
323.15 K, x1 = 0.6997	-0.341
323.15 K, x1 = 0.8005	-0.252
323.15 K, x1 = 0.9006	-0.12
